# According to patent US20250109127A1, “METHODS OF USE OF PHENOXYPROPYLAMINE COMPOUNDS TO TREAT DEPRESSION” (Minerva Neurosciences, Inc., priority 2013, published 2025):
# Where “and” joins values, the source holds several entries; their conditions need not be identical. Equal entries are not always repeated. Structures can show the parent of a compound that is named as a salt.
# Test system: 5-HT release in the rat prefrontal cortex
# Experiment: Microdialysis: 5-HT release in prefrontal cortex after I.P. administration
# Type: in vivo
# Settings: for 5-HT (% of respective basal), individual animal: 0.1 mg/kg I.P., c2-c9 = R#13,14,20,19,25,26,31,32; for 5-HT (% of respective basal), individual animal / 5-HT release, individual animals: hydrochloride; for 5-HT release, MEAN / 5-HT release, individual animals: 0.3 mg/kg I.P.; for 5-HT release, MEAN: n = 8; for 5-HT release, individual animals: one column per animal R#11,12,18,23,29,30,17,24
# Procedure: The aim of the study was to evaluate, using microdialysis, the effects of an intraperitoneal (I.P.) administration in rats of three different doses of SON-117 on dopamine and its metabolites, serotonin and its metabolite (5-HIAA), and norepinephrine levels in prefrontal cortex.
# Thirty-two adult male Wistar rats were used for the whole study (4 groups of eight animals planned for the study, Table 1).
# Surgery was performed on rats weighing about 300 g at the beginning of the experiments. Rats were anaesthetized with Ketamine (50 mg/kg) & Xylazine (15 mg/kg) by intramuscular administration. The animals were placed in a stereotaxic apparatus in the flat-skull position at a constant setting of −3.3 mm between ear bars and the incisor bar. The animals were treated with a local anesthesic (xylocaine 1%, Astra Zeneca) and an analgesic (Temgesic, from Schering Plough, 0.05 mg/kg, s.c.). A rostrocaudal midline incision was made with a lancet to expose the dorsal skull surface. The “stereotaxic zero” was defined by the Bregma in accordance with Paxinos and Watson's atlas (1986). A hole was drilled in the skull with a drill and the meninges were pierced with a sterile needle to implant a CMA12 guide cannula which later received the dialysis probe.
# Coordinates used for implanting guide cannula in prefrontal cortex from Bregma were anteroposterior 3.7 mm, mediolateral 0.8 mm, and dorsoventral −2 mm (top of the probe was at −5 mm). The guide cannula was fixed to the skull with two stainless steel screws (1.88 mm outside diameter) anchored. An application of dental cement was added. A plastic collar allowed each animal to be tethered to a Swivel assembly of the CMA 120 awake animal system. Following surgery, rats were kept in individual cages and allowed to recover for a minimum of 3-5 days before the experimentation. The rats were handled and put in plastic bowl for 10 min at least every day to habituate the animals to their new environment for the dialysis. An I.P. administration with saline was also performed every day.
# Dialysis probes (CMA12/3 mm, membrane, 20 kD cut-off, Carnegie Medicine, Stockholm, Sweden), were carefully washed before inserting into the guide cannula. The wash was performed with the artificial cerebrospinal fluid (aCSF) medium (NaCl 147 mM, KCl 2.7 mM, CaCl2 1.2 mM, MgCl2 0.85 mM) at room temperature. The dialysis system was then equilibrated at 20° C. at a perfusion rate of 1 μl/min with a Carnegie pump (CMA100). All catheters (FEP tubing, internal volume of 1.2 μl/10 cm, and tubing adaptors) used for microdialysis were treated in the same conditions.
# The probes duly prepared were inserted into the guide cannula and the CMA120 Swivel assembly secured to the animal using a plastic collar. Flow through the dialysis probe with aCSF was maintained at a rate of 1 μl/min during the whole experimentation. The first four fractions (corresponding to 2 hours) were discarded to avoid the effects of parenchymal disturbance and to ensure that an approximate steady-state level was reached. Fractions were then collected over a period of 8.5 h during which time the animals remained quiet. The dialysates were automatically collected with an autosampler (microfraction collector CMA 140, Carnegie Medicin) and stored at −80° C. until analysis. […] Perfusion was then maintained for 7 hours with aCSF. The dialysates (30 μl) were collected into 300 μl vials, transferred into dry ice and then kept frozen (−80° C.) until analysis. Frozen samples were shipped to a partner for analysis. At the end of the microdialysis study, a PBS with colored ink was perfused through the probe in order to visualize the dialyzed area.
# Catecholamine assay: Concentrations of dopamine, DOPAC, HVA, 5-HIAA, 5-HT, and norepinephrin were determined for each sample by HPLC coupled with electrochemical detection. […]
smiles,measurement,setting,value
"Cc1nnc(-c2cc3c(OC[C@@H](O)CN4CCC(c5ccc(Cl)c(Cl)c5)CC4)cccc3o2)o1 [SON-117, (S)-1-(4-(3,4-dichlorophenyl)piperidino)-3-(2-(5-methyl-1,3,4-oxadiazol-2-yl)benzo(b)furan-4-yloxy)-2-propanol hydrochloride]","5-HT (% of respective basal), individual animal",T30-T1 h,69.00 % of respective basal and 117.47 % of respective basal and 153.30 % of respective basal and 119.68 % of respective basal and 228.97 % of respective basal and 127.98 % of respective basal and 113.81 % of respective basal and 57.12 % of respective basal
same,"5-HT (% of respective basal), individual animal",T1 h 30-T2 h,92.30 % of respective basal and 410.73 % of respective basal and 162.34 % of respective basal and 123.16 % of respective basal and 77.29 % of respective basal and 149.14 % of respective basal and 262.61 % of respective basal and 62.56 % of respective basal
same,"5-HT (% of respective basal), individual animal",T1 h-T1 h 30,84.80 % of respective basal and 173.62 % of respective basal and 140.43 % of respective basal and 113.99 % of respective basal and 98.07 % of respective basal and 572.83 % of respective basal and 162.09 % of respective basal and 62.45 % of respective basal
same,"5-HT (% of respective basal), individual animal",T2 h 30-T3 h,51.79 % of respective basal and 182.3 % of respective basal and 109.29 % of respective basal and 102.05 % of respective basal and 101.27 % of respective basal and 528.93 % of respective basal and 86.68 % of respective basal and 564.06 % of respective basal
same,"5-HT (% of respective basal), individual animal",T2 h-T2 h 30,82.11 % of respective basal and 59.17 % of respective basal and 129.41 % of respective basal and 112.33 % of respective basal and 523.12 % of respective basal and 458.59 % of respective basal and 127.80 % of respective basal and 1473.07 % of respective basal
same,"5-HT (% of respective basal), individual animal",T3 h 30-T4 h,74.33 % of respective basal and 66.30 % of respective basal and 153.79 % of respective basal and 155.51 % of respective basal and 132.93 % of respective basal and 131.96 % of respective basal and 93.88 % of respective basal and 405.95 % of respective basal
same,"5-HT (% of respective basal), individual animal",T3 h-T3 h 30,72.21 % of respective basal and 249.58 % of respective basal and 128.14 % of respective basal and 138.05 % of respective basal and 139.82 % of respective basal and 122.70 % of respective basal and 103.66 % of respective basal and 298.06 % of respective basal
same,"5-HT (% of respective basal), individual animal",T4 h 30-T5 h,79.25 % of respective basal and 111.21 % of respective basal and 188.06 % of respective basal and 105.16 % of respective basal and 99.59 % of respective basal and 221.4 % of respective basal and 113.08 % of respective basal and 1455.86 % of respective basal
same,"5-HT (% of respective basal), individual animal",T4 h-T4 h 30,10.23 % of respective basal and 242.01 % of respective basal and 138.36 % of respective basal and 81.92 % of respective basal and 75.44 % of respective basal and 312.84 % of respective basal and 89.43 % of respective basal and 1851.01 % of respective basal
same,"5-HT (% of respective basal), individual animal",T5 h 30-T6 h,18.22 % of respective basal and 541.94 % of respective basal and 112.81 % of respective basal and 91.86 % of respective basal and 67.97 % of respective basal and 390.29 % of respective basal and 95.06 % of respective basal and 682.45 % of respective basal
same,"5-HT (% of respective basal), individual animal",T5 h-T5 h 30,106.82 % of respective basal and 610.15 % of respective basal and 166.13 % of respective basal and 112.99 % of respective basal and 48.55 % of respective basal and 433.73 % of respective basal and 103.27 % of respective basal and 900.33 % of respective basal
same,"5-HT (% of respective basal), individual animal",T6 h 30-T7 h,76.67 % of respective basal and 764.86 % of respective basal and 75.95 % of respective basal and 109.17 % of respective basal
same,"5-HT (% of respective basal), individual animal",T6 h-T6 h 30,98.17 % of respective basal and 780.23 % of respective basal and 117.32 % of respective basal and 105.66 % of respective basal and 44.34 % of respective basal and 387.64 % of respective basal and 93.11 % of respective basal and 410.53 % of respective basal
same,"5-HT release, MEAN",T0-T30 min,119.65 % of respective basal
same,"5-HT release, MEAN",T30-T1 h,111.24 % of respective basal
same,"5-HT release, individual animals",T30-T1 h,160.62 % of respective basal and 82.62 % of respective basal and 90.53 % of respective basal and 121.61 % of respective basal and 144.48 % of respective basal and 187.01 % of respective basal and 55.67 % of respective basal and 47.37 % of respective basal
same,"5-HT release, MEAN",T1 h 30-T2 h,114.14 % of respective basal
same,"5-HT release, individual animals",T1 h 30-T2 h,181.24 % of respective basal and 97.85 % of respective basal and 76.79 % of respective basal and 83.68 % of respective basal and 125.63 % of respective basal and 123.37 % of respective basal and 24.18 % of respective basal and 200.38 % of respective basal
same,"5-HT release, MEAN",T1 h-T1 h 30,144.23 % of respective basal
same,"5-HT release, individual animals",T1 h-T1 h 30,149.89 % of respective basal and 128.02 % of respective basal and 96.66 % of respective basal and 76.75 % of respective basal and 140.12 % of respective basal and 235.56 % of respective basal and 63.72 % of respective basal and 263.12 % of respective basal
same,"5-HT release, MEAN",T2 h 30-T3 h,126.37 % of respective basal
same,"5-HT release, individual animals",T2 h 30-T3 h,96.77 % of respective basal and 104.38 % of respective basal and 101.02 % of respective basal and 167.96 % of respective basal and 125.41 % of respective basal and 206.04 % of respective basal and 42.18 % of respective basal and 167.18 % of respective basal
same,"5-HT release, MEAN",T2 h-T2 h 30,106.16 % of respective basal
same,"5-HT release, individual animals",T2 h-T2 h 30,111.34 % of respective basal and 124.56 % of respective basal and 108.53 % of respective basal and 74.72 % of respective basal and 123.51 % of respective basal and 215.61 % of respective basal and 33.60 % of respective basal and 57.37 % of respective basal
same,"5-HT release, MEAN",T3 h 30-T4 h,133.06 % of respective basal
